Experimental data from patent US8404648B2, “Polypeptides KXK and their use” (Sederma, priority 2006, dated 2013).
Several values for one entry are separate records, joined by “and”; a condition that tells them apart may be missing. Equal values may be shown once. Where a SMILES comes first, the peptide text is derived from it. Where no end group is shown, it is not given here. The star is where a group is joined. Ela = elaidoyl, CCCCCCCC/C=C/CCCCCCCC(=O)*; Palmitoyl = CCCCCCCCCCCCCCCC(=O)*

Experiments:
Assay type in all cases: cell-based
[1] = test system: Collagen IV synthesis, Normal Human Dermal Fibroblasts (NHDF); assay: Collagen IV synthesis by NHDF, commercial ELISA kit on supernatants after 3 days; conditions: for Variation of Collagen IV synthesis (mean, in % of negative control): NHDF, 3 days
Description: (§1) Products: Pal-KTFK (SEQ ID NO: 7), Ela-KTAK (SEQ ID NO: 9) and Ela-KTFK (SEQ ID No: 8) were tested from 2 to 6 ppm, and Pal-KAvaK was tested from 1 to 4 ppm. Solvent=DMSO 0.08%. TGF-beta1 10^−6%, was the positive control for collagen I and fibronectin studies.
(§2) Principle of the study: Normal Human Dermal Fibroblasts (NHDF) were cultivated in an appropriate culture medium (i.e. complete DMEM with fetal calf serum). After cell anchorage, cell layers were rinsed with saline buffer and contact with molecules to be tested were performed in a complete DMEM without fetal calf serum. This medium contained ascorbate (sodium salt) and beta-aminopropionitrile, monofumarate. After 3 days of incubation, supernatants were collected and frozen. Survival was estimated on cell layer using a fluorescent probe. Collagen I was estimated using an original direct ELISA method, Fibronectin and Collagen IV were estimated using ELISA commercial kits.
(§3) Results: Statistical analysis were performed on Collagen I data (n=5/assay) or fibronectin data (n=5/assay) or Collagen IV data (n=5/assay). Results obtained with molecules were compared to negative control. All data are in ng/10E6 cells. A Student t test for non paired values was used; significativity was obtained if p<0.05 or p<0.01.

[2] = test system: Collagen I synthesis, Normal Human Dermal Fibroblasts (NHDF); assay: Collagen I synthesis by NHDF, direct ELISA on supernatants after 3 days; conditions: for Collagen I synthesis, result in words: vs negative control; for Variation of Collagen I synthesis (mean, in % of negative control): NHDF, 3 days
Description: as §1, §2, §3

[3] = test system: Fibronectin synthesis, Normal Human Dermal Fibroblasts (NHDF); assay: Fibronectin synthesis by NHDF, commercial ELISA kit on supernatants after 3 days; conditions: for Variation of Fibronectin synthesis (mean, in % of negative control): NHDF, 3 days; for Fibronectin synthesis, result in words: vs negative control
Description: as §1, §2, §3

[4] = test system: Normal Human Dermal Fibroblasts (NHDF); assay: Survival estimated on cell layer using a fluorescent probe; conditions: 3 days of incubation
Description: as §2

[5] = positive control, TGF-beta1 10^−6% (10 ppb)

Compound | Variation of Collagen I synthesis (mean, in % of negative control) ([2]; 2 ppm) | Variation of Collagen I synthesis (mean, in % of negative control) ([2]; 4 ppm) | Variation of Collagen I synthesis (mean, in % of negative control) ([2]; 6 ppm) | Collagen I synthesis, result in words ([2]; 6 ppm) | Variation of Fibronectin synthesis (mean, in % of negative control) ([3]; 2 ppm) | Variation of Fibronectin synthesis (mean, in % of negative control) ([3]; 4 ppm) | Fibronectin synthesis, result in words ([3]; 4 ppm) | Variation of Fibronectin synthesis (mean, in % of negative control) ([3]; 6 ppm) | Variation of Collagen IV synthesis (mean, in % of negative control) ([1]; 2 ppm) | Variation of Collagen IV synthesis (mean, in % of negative control) ([1]; 4 ppm) | further results
TGF-beta: TGF-beta1 10^−6%, the positive control for collagen I and fibronectin studies [reference compound] |  |  |  |  |  |  |  |  |  |  | Variation of Collagen IV synthesis (mean, in % of negative control) ([1]; 10 ppb): 12%; Collagen I synthesis, result in words [2, 5]: significant increase; Variation of Fibronectin synthesis (mean, in % of negative control) ([3]; 10 ppb): 124% and 85% and 87%; Fibronectin synthesis, result in words [3, 5]: significant increase
CCCCCCCCCCCCCCCC(=O)N[C@@H](CCCCN)C(=O)N[C@H](C(=O)N[C@@H](Cc1ccccc1)C(=O)N[C@@H](CCCCN)C(=O)O)[C@@H](C)O [Pal-KTFK, Pal-Lys-Thr-Phe-Lys] (Palmitoyl-KTFK-OH) |  |  |  |  |  |  |  |  |  |  | maximal concentration accepted by the cells [4]: ~6 ppm
Ela-Lys-Thr-Ala-Lys (Ela-KTAK) [N-elaidoyl tetrapeptide Lys-Thr-Ala-Lys] | 6% | 18% | 45% | increase | 16% | 32% | increase | 31% |  |  | 
Pal-Lys-Ava-Lys [Pal-KAvaK] | 14% | 49% |  |  | 15% | 54% | increase |  | 9% | 23% | Variation of Collagen IV synthesis (mean, in % of negative control) ([1]; 1 ppm): 8%; Collagen IV synthesis, result in words ([1]; 4 ppm, vs negative control): increase; Variation of Collagen I synthesis (mean, in % of negative control) ([2]; 1 ppm): 1%; Collagen I synthesis, result in words ([2]; 4 ppm): increase; Variation of Fibronectin synthesis (mean, in % of negative control) ([3]; 1 ppm): 14%
Ela-Lys-Thr-Phe-Lys (Ela-KTFK) [N-elaidoyl tetrapeptide Lys-Thr-Phe-Lys] | 6% | 19% | 49% | significant increase | 10% | 25% |  | 42% | 10% | 7% | Variation of Collagen IV synthesis (mean, in % of negative control) ([1]; 6 ppm): 7%; Fibronectin synthesis, result in words ([3]; 6 ppm): significant increase
